Experimental data taken from patent US10941157B2, “Pesticidal compositions and uses thereof” (Gilead Apollo, LLC, priority 2015, dated 2021).
In brackets after ≈: the same amount, converted by molar mass.

Assays:
[1] = system: Collectotrichum graminicola (Cg); assay: In vitro pathogen growth inhibition assay, Cg; type: cell-based; settings: 48 h, ≥90% inhibition; 48 hours vs 2% DMSO control; read-out: Compound Concentration (ppm) sufficient for ≥90% inhibition of growth, Cg
Summary of the method: (§1)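 Spores in 17% V8 liquid medium, or 1.5 mm Rs mycelial plugs in ¼ PDB, incubated with compound; final concentration checked by OD600 for precipitation. OD readings at 24 and 48 h, blank-subtracted, plus visual ratings; value is concentration giving ≥90% growth inhibition.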

[2] = system: Mycosphaerella graminicola (synthetic Septoria tritici); assay: Foliar protection test for wheat septoria leaf blotch control; type: in vivo; settings: foliar spray on Triticum aestivum cv. WinterHawk, inoculated 1 hour after treatment, evaluated 16 days later
Septoria tritici (St) = assay: In vitro pathogen growth inhibition assay, St; type: cell-based; settings: Zymoseptoria tritici, 48 h, ≥90% inhibition; 48 hours vs 2% DMSO control; read-out: Compound Concentration (ppm) sufficient for ≥90% inhibition of growth, St
Summary of the method: as §1

Sphaerotheca fuliginea = assay: Foliar protection for cucumber powdery mildew control; type: in vivo; settings: foliar spray on Cucumis sativus cv. Straight Eight, inoculated 24 hours after treatment, evaluated 7 days later
Summary of the method: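 Cucumber plants (cv. Straight Eight, 10 days old) sprayed to wetness on both leaf surfaces, then inoculated 24 h later by shaking sporulating stock plants over them. Held at 23–27 °C, 16 h light, 60% RH. Mildew colonization scored 7 days after inoculation, at compound concentrations of 10 ppm or lower.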

Botrtyis cinerea (Bc) = assay: In vitro pathogen growth inhibition assay, Bc; type: cell-based; settings: 48 h, ≥90% inhibition; 48 hours vs 2% DMSO control; read-out: Compound Concentration (ppm) sufficient for ≥90% inhibition of growth, Bc
Summary of the method: as §1

[3] = system: Saccharomyces cerevisiae (Sc); assay: Yeast growth inhibition assay; type: cell-based; settings: Saccharomyces cerevisiae, ≥75% inhibition, read-out: Compound Concentration (ppm) sufficient for ≥75% inhibition, Sc
Description: Both tables list the concentration of each compound that was sufficient to ≥90% inhibition of growth for each of the fungal pathogens listed above. In addition, some of compounds were tested in a yeast growth inhibition assay for Saccharomyces cerevisiae (Sc). Table 2 lists the concentration of the tested compound that was sufficient to ≥75% inhibition of Saccharomyces cerevisiae (Sc).

Fusarium graminearum = type: in vivo; settings: spray on flowering Triticum aestivum cv. Samson, inoculated 24 hours after treatment, evaluated 14 days later
Phakopsora pachyrhizi = assay: Foliar protection test for Asian soybean rust control; type: in vivo; settings: foliar application to soybean (Glycine max AG4832), percent disease area evaluated 14 days later
Puccinia triticina = assay: Foliar protection test for wheat leaf rust control; type: in vivo; settings: foliar application to wheat (Triticum aestivum cv. Winterhawk), evaluated 10 days later
[4] = system: Blumeria graminis f. sp. hordei; assay: Foliar protection test for barley powdery mildew control; type: in vivo; settings: foliar spray on Hordeum vulgare cv. Perry, inoculated 24 hours after treatment, evaluated 7 days later
Summary of the method: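 Six-day-old barley (cv. Perry) sprayed to wetness on both leaf sides; 24 h later inoculated by shaking spores from infected stock plants. Kept at 20 to 22° C, 70% relative humidity; mildew colonization assessed 7 days later.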

[5] = system: Phytophthora capsici (Pc); assay: In vitro pathogen growth inhibition assay, Pc; type: cell-based; settings: 48 h, ≥90% inhibition, 48 hours vs 2% DMSO control, read-out: Compound Concentration (ppm) sufficient for ≥90% inhibition of growth, Pc
Summary of the method: as §1

Rhizoctonia solani (Rs) = assay: In vitro pathogen growth inhibition assay, Rs (mycelial plugs); type: cell-based; settings: Rhizoctonia solani, 48 h, ≥90% inhibition; mycelial plugs; 48 hours vs 2% DMSO control; read-out: Compound Concentration (ppm) sufficient for ≥90% inhibition of growth, Rs
Summary of the method: as §1

Diplodia maydis (Dm) = assay: In vitro pathogen growth inhibition assay, Dm; type: cell-based; settings: Stenocarpella maydis, 48 h, ≥90% inhibition; 48 hours vs 2% DMSO control; read-out: Compound Concentration (ppm) sufficient for ≥90% inhibition of growth, Dm
Summary of the method: as §1

[6] = system: Fusarium moniliforme (Fm); assay: In vitro pathogen growth inhibition assay, Fm; type: cell-based; settings: Fusarium verticillioides; ≥90% inhibition; 48 hours vs 2% DMSO control; read-out: Compound Concentration (ppm) sufficient for ≥90% inhibition of growth, Fm
Summary of the method: as §1

[7] = system: Fusarium virguliforme (Fv); assay: In vitro pathogen growth inhibition assay, Fv; type: cell-based; settings: ≥90% inhibition, 48 hours vs 2% DMSO control, read-out: Compound Concentration (ppm) sufficient for ≥90% inhibition of growth, Fv
Summary of the method: as §1

Rhizoctonia solani = assay: Seed protectant for soybean seedling disease, R. solani; type: in vivo; settings: soybean from treated seeds, 0.025 mg/seed, R. solani inoculated; for Plant Weight: fresh weight at 14 days; for Improvement in plant weight: percentage of non-inoculated non-treated controls
Description: (§2) The pathogen of Rhizoctonia solani inoculum was grown on sterile sorghum; and the pathogen of Pythium ultimum inoculum was grown on white millet.
(§3) Soybean seeds (Glycine max cv. AG4832) were planted in 2.5-inch square pots containing Berger BM2 germination mix amended with fertilizer (e.g., 14-14-14). Pots with soil were inoculated with the pathogen of R. solani or P. ultimum at time of planting. A hole was pressed into the soil to a depth of about 2 to 3 cm; the inoculum was added to the hole, followed by the seed which was then covered with soil. Two seeds per pot were planted. Plants were grown in a growth chamber at conditions of 20 to 24° C., 14 hour light cycle, 500 uM of light, and 65% humidity. The pots inoculated with P. ultimum were sub-irrigated every day; and the pots inoculated with R. solani were sub-irrigated every other day.
(§4) Seedling emergence was captured at 7 and 14 days after seeding. At 14 days, the top of the plant was removed and fresh weight was recorded. The plant weights from the seeds treated with test compounds (e.g., in formulations) were compared to the ones either from the inoculated non-treated seeds or non-inoculated non-treated seeds. Table 10 lists the results of the R. solani control in soybean upon seed treatment with test compounds, and Table 11 lists the results of the P. ultimum control in soybean upon seed treatment with test compounds, respectively.

Pythium ultimum = assay: Seed protectant for soybean seedling disease, P. ultimum; type: in vivo; settings: soybean from treated seeds, 0.025 mg/seed, P. ultimum inoculated; for Plant Weight: fresh weight at 14 days; for Improvement in plant weight: percentage of non-inoculated non-treated controls
Description: as §2, §3, §4

CCOC(=O)c1sc2c(c1C)c(=O)n(C(C)(C)C(=O)N1CCCC1)c(=O)n2C[C@H](OC1CCOCC1)c1ccccc1OC [Compound I-003, (R)-ethyl-1-(2-(2-methoxyphenyl)-2-((tetrahydro-2H-pyran-4-yl)oxy)ethyl)-5-methyl-3-(2-methyl-1-oxo-1-(pyrrolidin-1-yl)propan-2-yl)-2,4-dioxo-1,2,3,4-tetrahydrothieno[2,3-d]pyrimidine-6-carboxylate]
IC90 [1]: 0.4 µg/mL (≈ 0.637 µM)
Septoria Leaf Blotch Control at a compound concentration of 25 ppm or lower [2]: C (from 25 to 49% control of wheat septoria leaf blotch)
IC90 (Septoria tritici (St)): ≥ 10 µg/mL
Cucumber Powdery Mildew Control at a compound concentration of 10 ppm or lower (Sphaerotheca fuliginea): AA (≥85% control of cucumber powdery mildew)
IC90 (Botrtyis cinerea (Bc)): 2 µg/mL (≈ 3.19 µM)
IC75 [3]: 0.4 µg/mL (≈ 0.637 µM)
Wheat Fusarium Head Blight Control at a compound concentration of 25 ppm or lower (Fusarium graminearum): B (from 50 to 69% control of wheat fusarium head blight)
Asian Soybean Rust Control at a compound concentration of 25 ppm or lower (Phakopsora pachyrhizi): A (from 70% to 84% control of Asian soybean rust)
Wheat Leaf Rust Control at a compound concentration of 10 ppm or lower (Puccinia triticina): AA (≥85% control of wheat leaf rust)
Barley Powdery Mildew Control at a compound concentration of 10 ppm or lower [4]: A (from 70% to 84% control of barley powdery mildew)
IC90 [5]: > 50 µg/mL
IC90 (Rhizoctonia solani (Rs)): 0.4 µg/mL (≈ 0.637 µM)
IC90 (Diplodia maydis (Dm)): 2 µg/mL (≈ 3.19 µM)
IC90 [6]: 0.08 µg/mL (≈ 0.127 µM)
IC90 [7]: 0.4 µg/mL (≈ 0.637 µM)

COc1ccc(F)cc1[C@H](Cn1c(=O)n(C(C)(C)C(=O)NC(C)C)c(=O)c2c(C)c(-n3cccn3)sc21)OC(C)C [Compound I-014, (R)-2-(1-(2-(5-fluoro-2-methoxyphenyl)-2-isopropoxyethyl)-5-methyl-2,4-dioxo-6-(1H-pyrazol-1-yl)-1,4-dihydrothieno[2,3-d]pyrimidin-3(2H)-yl)-N-isopropyl-2-methylpropanamide]
IC90 [1]: 2 µg/mL (≈ 3.41 µM)
Septoria Leaf Blotch Control at a compound concentration of 25 ppm or lower [2]: D (<25% control of wheat septoria leaf blotch)
IC90 (Septoria tritici (St)): > 10 µg/mL
Cucumber Powdery Mildew Control at a compound concentration of 10 ppm or lower (Sphaerotheca fuliginea): AA (≥85% control of cucumber powdery mildew)
IC90 (Botrtyis cinerea (Bc)): 0.4 µg/mL (≈ 0.683 µM)
IC75 [3]: 1.2 µg/mL (≈ 2.05 µM)
Wheat Fusarium Head Blight Control at a compound concentration of 25 ppm or lower (Fusarium graminearum): C (from 25 to 49% control of wheat fusarium head blight)
Asian Soybean Rust Control at a compound concentration of 25 ppm or lower (Phakopsora pachyrhizi): A (from 70% to 84% control of Asian soybean rust)
Wheat Leaf Rust Control at a compound concentration of 10 ppm or lower (Puccinia triticina): A (from 70% to 84% control of wheat leaf rust)
Barley Powdery Mildew Control at a compound concentration of 10 ppm or lower [4]: AA (≥85% control of barley powdery mildew)
IC90 [5]: > 50 µg/mL
IC90 (Rhizoctonia solani (Rs)): 2 µg/mL (≈ 3.41 µM)
IC90 (Diplodia maydis (Dm)): 2 µg/mL (≈ 3.41 µM)
IC90 [6]: 0.08 µg/mL (≈ 0.137 µM)
IC90 [7]: 0.4 µg/mL (≈ 0.683 µM)

COc1ccc(F)cc1[C@H](Cn1c(=O)n(C(C)(C)C(=O)NC(C)C)c(=O)c2c(C)c(-n3nccn3)sc21)OCCO [Compound I-064, (R)-2-(1-(2-(5-fluoro-2-methoxyphenyl)-2-(2-hydroxyethoxy)ethyl)-5-methyl-2,4-dioxo-6-(2H-1,2,3-triazol-2-yl)-1,4-dihydrothieno[2,3-d]pyrimidin-3 (2H)-yl)-N-isopropyl-2-methylpropanamide]
IC90 [1]: 0.4 µg/mL (≈ 0.68 µM)
Septoria Leaf Blotch Control at a compound concentration of 25 ppm or lower [2]: A (from 70% to 84% control of wheat septoria leaf blotch)
IC90 (Septoria tritici (St)): ≥ 2 µg/mL
Plant Weight (Rhizoctonia solani): 6.41 g
Improvement in plant weight (Rhizoctonia solani): 79.9%
Plant Weight (Pythium ultimum): 5.49 g
Improvement in plant weight (Pythium ultimum): 88%
Cucumber Powdery Mildew Control at a compound concentration of 10 ppm or lower (Sphaerotheca fuliginea): AA (≥85% control of cucumber powdery mildew)
IC90 (Botrtyis cinerea (Bc)): 2 µg/mL (≈ 3.4 µM)
Wheat Fusarium Head Blight Control at a compound concentration of 25 ppm or lower (Fusarium graminearum): C (from 25 to 49% control of wheat fusarium head blight)
Asian Soybean Rust Control at a compound concentration of 25 ppm or lower (Phakopsora pachyrhizi): A (from 70% to 84% control of Asian soybean rust)
Wheat Leaf Rust Control at a compound concentration of 10 ppm or lower (Puccinia triticina): AA (≥85% control of wheat leaf rust)
Barley Powdery Mildew Control at a compound concentration of 10 ppm or lower [4]: A (from 70% to 84% control of barley powdery mildew)
IC90 [5]: ≥ 2 µg/mL
IC90 (Rhizoctonia solani (Rs)): ≥ 0.08 µg/mL
IC90 (Diplodia maydis (Dm)): 0.4 µg/mL (≈ 0.68 µM)
IC90 [6]: 0.08 µg/mL (≈ 0.136 µM)
IC90 [7]: 0.4 µg/mL (≈ 0.68 µM)

COCCO[C@@H](Cn1c(=O)n(C(C)(C)C(=O)NC(C)C)c(=O)c2c(C)c(-n3nccn3)sc21)c1cc(F)ccc1OC [Compound I-074, (R)-2-(1-(2-(5-fluoro-2-methoxyphenyl)-2-(2-methoxyethoxy)ethyl)-5-methyl-2,4-dioxo-6-(2H-1,2,3-triazol-2-yl)-1,4-dihydrothieno[2,3-d]pyrimidin-3 (2H)-yl)-N-isopropyl-2-methylpropanamide]
IC90 [1]: 2 µg/mL (≈ 3.32 µM)
Septoria Leaf Blotch Control at a compound concentration of 25 ppm or lower [2]: AA (≥85% control of wheat septoria leaf blotch)
IC90 (Septoria tritici (St)): > 50 µg/mL
Plant Weight (Rhizoctonia solani): 2.06 g
Improvement in plant weight (Rhizoctonia solani): 25.7%
Plant Weight (Pythium ultimum): 4.33 g
Improvement in plant weight (Pythium ultimum): 69%
Cucumber Powdery Mildew Control at a compound concentration of 10 ppm or lower (Sphaerotheca fuliginea): AA (≥85% control of cucumber powdery mildew)
IC90 (Botrtyis cinerea (Bc)): 2 µg/mL (≈ 3.32 µM)
Wheat Fusarium Head Blight Control at a compound concentration of 25 ppm or lower (Fusarium graminearum): C (from 25 to 49% control of wheat fusarium head blight)
Asian Soybean Rust Control at a compound concentration of 25 ppm or lower (Phakopsora pachyrhizi): C (from 25 to 49% control of Asian soybean rust)
Wheat Leaf Rust Control at a compound concentration of 10 ppm or lower (Puccinia triticina): A (from 70% to 84% control of wheat leaf rust)
Barley Powdery Mildew Control at a compound concentration of 10 ppm or lower [4]: AA (≥85% control of barley powdery mildew)
IC90 [5]: ≥ 50 µg/mL
IC90 (Rhizoctonia solani (Rs)): 0.4 µg/mL (≈ 0.664 µM)
IC90 (Diplodia maydis (Dm)): 2 µg/mL (≈ 3.32 µM)
IC90 [6]: 0.08 µg/mL (≈ 0.133 µM)
IC90 [7]: 0.4 µg/mL (≈ 0.664 µM)
